Activity calls are given as the source filed them. The calls are words filed in the database; no cut-off is given here.
Tested on: Platelet
Experiment: Antiplatelet activity in Japanese white rabbit platelet assessed as inhibition of thrombin-induced platelet aggregation at 600 uM preincubated 5 mins before thrombin challenge
Format: functional, cell-based
Conditions: Oryctolagus cuniculus

With `COc1cc(/C=C/[C@@H](CO)Cc2ccc(O)c(OC)c2)ccc1O` the Activity was “Active”.

Reference: ChEMBL document CHEMBL1159216, “Imperanene, a novel phenolic compound with platelet aggregation inhibitory activity from Imperata cylindrica” (J Nat Prod, 1995)
